From paper PMC10671052, “Naphthyl-Substituted Indole and Pyrrole Carboxylic Acids as Effective Antibiotic Potentiators—Inhibitors of Bacterial Cystathionine γ-Lyase” (International Journal of Molecular Sciences, 2023) come the findings set out here.

The structures appear in SMILES notation. ≈ marks a conversion by molar mass, not a printed value.

Data set [1] concerns P. aeruginosa GIMC5016:PA1840/36/2015. The data set is described as follows: MIC of antibiotics alone and with potentiators, clinical isolate. The settings on record: P. aeruginosa GIMC5016:PA1840/36/2015, no potentiator.
Protocol: (§3) Overnight (ON) culture of a specific strain was grown in the liquid Luria–Bertani nutrient medium (LB broth, BD Difco) for 18 h at 37 °C, with agitation at 180 rpm using an Innova 44R orbital shaker (Eppendorf, Hamburg, Germany). After a certain period, 50 µL of the ON culture was transferred into 5 mL of the LB medium and grown for 3 h at 37 °C with agitation. Growth in the liquid medium was assessed by means of turbidity of the suspension, measured using a Densi-La-Meter II densitometer (Erba Lachema s.r.o., Brno, Czech Republic). Then, the bacterial suspension was diluted to the concentration 10^6 cells/mL with sterile LB and used as a seed culture [38, 39].
(§4) For the assessment of MICs, 96-well microtiter plates were utilized at 200 µL of a medium per well. Each well was filled with 100 µL of the seed culture. After that, 10 µL of a solution of each tested synthetic compound (potentiators) was added into each experimental well. Finally, 90 µL of twofold serial dilutions of an antibiotic in a sterile LB was added into individual wells.
(§5) As a positive control, we set up wells with 100 µL of the bacterial culture and 100 µL of the sterile LB medium. […] Negative-control wells contained 200 µL of the sterile medium. The plates were incubated in a thermostat for 18–20 h at 37 °C. The bacterial growth was assessed as optical density at 600 nm on a CLARIOstar microplate reader (BMG LABTECH GmbH, Ortenberg, Germany)).
In data set [2] the test system is A. baumannii GIMC5509:ABT-52Ts19. The data set is described as above. Particulars: A. baumannii GIMC5509:ABT-52Ts19, no potentiator.
Protocol: as §3, §4, §5
Data set [3] relates to P. aeruginosa GIMC5016:PA1840/36/2015. The data set is described as follows: Susceptibility of isolate to main antimicrobial agents. Format: cell-based.
Data set [4] in a line: HEK293 cytotoxicity assay (Alamar Blue). It is filed as cell-based. Particulars: human, HEK293 cells, HEK293, 72 h. As to the method: The HEK 293 cell line was obtained from the European Collection of Authenticated Cell Cultures (ECACC, cat. # 85120602, Salisbury, UK). The cells were grown in a monolayer culture in Dulbecco’s Modified Eagle’s Medium (DMEM) (PanEco, Moscow, Russia), supplemented with 2 mM L-glutamine, 1% of a penicillin/streptomycin solution (Capricorn Scientific, Ebsdorfergrund, Germany), and 10% of heat inactivated fetal bovine serum (HyClone, Cytiva, Marlborough, MA, USA) in a humidified atmosphere containing 5% of CO2 at 37 °C (Binder, Germany). For the assay, HEK 293 cells were seeded in a 96-well plate (Corning, NY, USA) in 100 μL of the complete culture medium, at a final density of 2 × 10^3 cells/well, and were cultured for 24 h for proper attachment. Subsequently, the medium was removed, and the cells were exposed to a tested inhibitor at different concentrations for 72 h in 100 μL of the fresh complete culture medium. The sensitivity of the cells to the compounds was detected using the vital dye Alamar Blue (Invitrogen, San Diego, CA, USA). The Alamar Blue assay was performed according to the procedure described by O’Brien et al.. After incubation with the tested bCSE inhibitors, 10 μL of the Alamar Blue reagent was added into each well, the cell culture plates were returned to the humidified incubator, and the fluorescence was read after 3 h. The plates were exposed to an excitation light of 545 nm wavelength, and emission at 600 nm was measured on the CLARIOstar Plus (BMG LABTECH GmbH, Ortenberg, Germany). To determine half-maximal cytotoxic concentration (CC50), a four-parameter sigmoidal curve model (GraphPad Prism 8 software) was fitted to the measurement data.
(Alamar Blue is a resazurin reagent that responds to reducing activity.)

The target in data set [5] is T1, human cystathionine-γ-lyase (hCSE) (Homo sapiens, UniProt P32929).
T1 construct: His6-TEV (N, cleaved yes); host or cells: E. coli
T1 sequence (P32929 whole entry): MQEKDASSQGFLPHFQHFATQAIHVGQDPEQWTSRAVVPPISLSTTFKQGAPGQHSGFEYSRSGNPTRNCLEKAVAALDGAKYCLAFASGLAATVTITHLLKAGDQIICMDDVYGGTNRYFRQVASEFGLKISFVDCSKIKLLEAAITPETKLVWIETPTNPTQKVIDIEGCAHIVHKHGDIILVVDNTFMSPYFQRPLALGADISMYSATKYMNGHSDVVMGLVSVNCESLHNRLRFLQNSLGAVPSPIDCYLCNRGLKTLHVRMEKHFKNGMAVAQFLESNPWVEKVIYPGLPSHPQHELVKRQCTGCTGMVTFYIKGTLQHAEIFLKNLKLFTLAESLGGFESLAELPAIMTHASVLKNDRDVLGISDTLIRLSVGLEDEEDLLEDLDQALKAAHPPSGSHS
The data set is described as follows: IC50 assay: inhibition of H2S production by purified hCSE, WSP5 fluorescent probe. It is filed as biochemical. Particulars: purified hCSE 0.02 μM, 100 μM L-cysteine, WSP5 probe, mean ± SD; read-out: IC50 biochemical assay hCSE. As for the experimental part: (§1) Fluorescence spectrophotometry-based inhibitory activity toward purified bCSE and hCSE was measured in a 96-well nonbinding black plate (Greiner, Kremsmunster, Austria) at 100 μL of the reaction mixture per well. bCSE and hCSE (0.02 μM) were preincubated in a thermoshaker (Biosan, Riga, Latvia) (30 °C, 300 rpm) for 40 min in 50 mM sodium phosphate buffer (pH 8.0), supplemented with 10 μM pyridoxal 5′-phosphate (Sigma-Aldrich, St. Louis, MO, USA), 0.1% of Tween 20 (Sigma-Aldrich, St. Louis, MO, USA), and 1.2 μM Washington State Probe-5 (Cayman Chemical, Ann Arbor, MI, USA) (excitation: 500 nm, emission: 530 nm) at different concentrations of a tested inhibitor. The reaction was initiated by the addition of 100 μM L-cysteine (TCI, Chennai, Tamil Nadu, India) in 50 mM sodium phosphate buffer pH 8.0 to the reaction mixture, and the enzymatic activity was monitored for 12 h using a CLARIOstar Plus instrument (BMG LABTECH GmbH, Ortenberg, Germany). The 100 µM L-cysteine concentration used in the experiments corresponds to the maximal reported intracellular concentration in bacteria. The data were normalized to the positive and negative controls, and IC50 values were obtained by fitting to a four-parameter sigmoidal curve (inhibitor vs. response, variable slope model) in GraphPad Prism 8 software (GraphPad by Dotmatics, Boston, MA, USA). Each experiment was conducted with 2–3 technical replicates. IC50 values were means of at least two independent experiments.
(§2) For the production of S. aureus cystathionine-γ-lyase (bCSE) and of human cystathionine-γ-lyase (hCSE), plasmids pSUMO:saCSE (Addgene # 54336) and pNIC28-Bsa4 (Addgene # 42365) were employed. Cultivation of a competent E. coli cell strain (Thermo Fisher Scientific, Waltham, MA, USA), transformed with a target plasmid, was carried out on a selective solid medium with kanamycin. Bacterial cells harboring the plasmid vector were cultured at 37 °C and 180 rpm until OD600 = 0.65. Then, isopropyl β-D1-thiogalactopyranoside (IPTG) was added to a final concentration of 1 mM. To obtain bCSE, the cells were cultured for 3.5 h at 37 °C; to obtain hCSE, the cells were cultured for 18–20 h at 25 °C. After centrifugation, cells were resuspended in a buffer composed of 50 mM Tris–HCl, at a pH of 8.0, and 300 mM sodium chloride. After that, the cells were lysed by ultrasonication, with a pulse duration of 15 s and an interval between pulses of 15 s. The amplitude of the ultrasonic vibrations was 50% of the maximum. After lysis, samples were centrifuged for 15 min (20,000× g at 4 ℃). The pH of the supernatant obtained after the centrifugation was adjusted to 7.5 by the addition of a 1 M solution of Tris–OH. Then, the test sample was subjected to filtration through a polyethersulfone membrane with a pore diameter of 0.22 μm.

The target in data set [6] is S. aureus cystathionine-γ-lyase (bCSE) (Staphylococcus aureus, UniProt A0A0H3K724). The data set is described as follows: IC50 assay: inhibition of H2S production by purified bCSE, WSP5 fluorescent probe. It is filed as biochemical. As to the method:
as §1, §2

The next data set in a line: physchem. Format: physicochemical. Particulars: for solubility at 2 h: 25 °C, pH 7.4, aqueous buffer, kinetic from dmso stock. As to the method:
A stock solution of a compound (10 mM in DMSO, 10 μL) was added to 990 μL of 100 mM sodium phosphate buffer (pH 7.4) and incubated at 25 °C for 2 h with constant shaking. The suspension was filtered through the PVDF membrane filter (Merck Millipore, Burlington, MA, USA). To 320 µL of the filtrate, 80 µL of acetonitrile was added and mixed. The mixture was transferred to a vial and analyzed by ultra-high-performance liquid chromatography (UHPLC) with UV detection. Concentrations were calculated from a 5-point calibration curve. The calibration range was 1 to 100 μM. The controls were diclofenac and nicardipine. All compounds were tested in triplicate.

A short description of data set [7]: LogD7.4, miniaturized shake flask method. Particulars: 1-octanol / 100 mM sodium phosphate buffer, pH 7.4, 1-octanol / 100 mM sodium phosphate buffer pH 7.4; read-out: Measured logD7.4. Format: physicochemical. As to the method: Coefficients of distribution between 1-octanol and 100 mM sodium phosphate buffer (pH 7.4) were determined by the miniaturized shake flask method. Namely, 5 μL of a 10 mM compound’s solution in DMSO was dissolved in 245 μL of 1-octanol saturated with phosphate buffer. Next, 500 μL of phosphate buffer saturated with 1-octanol was added, followed by mixing for 3 h. […] After that, 50 μL of the octanol phase (top layer) was aspirated and diluted with 500 μL of 1-octanol saturated with phosphate buffer. Then, the remaining octanol phase was removed; 50 μL of the buffer layer was aspirated and diluted with 500 μL of phosphate buffer saturated with 1-octanol. Both the octanol and phosphate buffer samples were analyzed by LC–MS/MS. The distribution coefficient was determined according to the following equation: logD7.4 = log10 (peak area for octanol sample/peak area for buffer sample). […] All compounds were tested in triplicate.

Data set [8] in a line: Metabolic stability in rat liver microsomes. Particulars: for microsomal CLint at 1 µM / half-life at 1 µM: rat, microsomes; for microsomal CLint at 1 µM: pH 7.4, CLint; for half-life at 1 µM: pH 7.4, t1/2, rat liver microsomes. As for the experimental part:
The metabolic stability of a test compound was evaluated based on the rate of disappearance during incubation with rat liver microsomes. […] The natural logarithm of a peak area ratio (compound peak area/internal standard peak area) was plotted against incubation time, and the slope of the line was determined.
Background: Liver microsomes are vesicles of endoplasmic reticulum, rich in cytochrome P450 enzymes.

A further data set relates to S. aureus ATCC 25923. The data set is described as follows: MIC of antibiotics alone and with potentiators, broth microdilution. Particulars: S. aureus ATCC 25923, no potentiator. (In general: Broth dilution looks for growth in wells or tubes with falling amounts of substance.)
The test system of data set [9] is S. aureus INA00761 (MRSA). The description is as above. Particulars: no potentiator.
Protocol: as §3, §4, §5

Chain of S. aureus cystathionine-γ-lyase (bCSE) (A0A0H3K724 entry or part of it): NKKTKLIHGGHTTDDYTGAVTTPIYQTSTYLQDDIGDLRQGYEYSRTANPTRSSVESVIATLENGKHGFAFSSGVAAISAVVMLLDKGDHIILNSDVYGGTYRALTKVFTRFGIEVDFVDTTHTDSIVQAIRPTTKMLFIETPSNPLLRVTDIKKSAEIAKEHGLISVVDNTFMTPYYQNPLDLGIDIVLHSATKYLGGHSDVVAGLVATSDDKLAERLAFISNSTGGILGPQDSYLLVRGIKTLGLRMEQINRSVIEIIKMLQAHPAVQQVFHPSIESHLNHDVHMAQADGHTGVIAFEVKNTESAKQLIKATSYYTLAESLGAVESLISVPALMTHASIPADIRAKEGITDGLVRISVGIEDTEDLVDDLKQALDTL
Protocol for S. aureus ATCC 25923: as §3, §4, §5

In the case of `CO/N=C(\C(=O)N[C@@H]1C(=O)N2C(C(=O)[O-])=C(C[N+]3(C)CCCC3)CS[C@H]12)c1csc(N)n1` [Cefepim, cefepime], the “MIC of antibiotic alone” value was 256 µg/mL in data set [1] and > 512 µg/mL in data set [2]. Besides, the “susceptibility of isolate (Sensitive to / Resistant to)” value in [3] is recorded as “Resistant to”.

For `O=C(O)c1cccn1Cc1ccc2ccccc2c1` [Compound 5b], in [4], half-maximal cytotoxicity (CC50 at 72 h) was put at 848 ± 72.2 µM. Moreover, the IC50 – broadly, the concentration at which inhibition is half-maximal – in [5] is > 500 µM; in data set [6] (IC50 (uM), bCSE enzymatic IC50, rounded, repeated in Table S13), > 500 µM; in data set [6] (IC50 (uM), bCSE enzymatic IC50, rounded, repeated in Table S14) it was > 500 µM; in data set [6] (IC50 (uM), bCSE enzymatic IC50, rounded, repeated in Table S15), > 500 µM; in [6] (IC50 biochemical assay bCSE, purified bCSE 0.02 μM, 100 μM L-cysteine, WSP5 probe, mean ± SD), > 500 µM.

Take `O=C(O)Cc1ccccc1Nc1c(Cl)cccc1Cl` [Diclofenac sodium]: in the data set “physchem”, the solubility (as a rule, the dissolved amount per volume that the medium holds) at 2 h was > 100 µM.

Turning to `C[C@@H](O)[C@H]1C(=O)N2C(C(=O)O)=C(S[C@@H]3CN[C@H](C(=O)N(C)C)C3)[C@H](C)[C@H]12` [Meropenem, meropenem], the “MIC of antibiotic alone” value in [1] came out at 16 µg/mL; in [2], 64 µg/mL. Besides, the “susceptibility of isolate (Sensitive to / Resistant to)” value in [3] is listed as “Resistant to”.

Compound `COC(=O)C1=C(C)NC(C)=C(C(=O)OCCN(C)Cc2ccccc2)C1c1cccc([N+](=O)[O-])c1` (centres unmarked) [Nicardipine] came in with a solubility at 2 h in “physchem” of 5.16 ± 0.23 µM (≈ 2.47 µg/mL). The Solubility (in general, the concentration that dissolves in the medium under given conditions) in the data set “physchem” (2 h, pH 7.4) is on record as 5.2 µM (≈ 2.49 µg/mL).

`CC(=O)Nc1ccc(O)cc1` [Paracetamol, reference compound]: the logD in data set [7] turned out to be 0.29 ± 0.02.

As for `O=c1ccc2ccc(O)cc2o1` [Umbelliferone], the CLint in [8] (rat liver microsomes, cofactor NADPH, 1 µM) is 8.8 µL/min/mg. Also, the intrinsic metabolic clearance (microsomal CLint) – broadly, a measure of how fast metabolising enzymes remove a compound, apart from limits set by blood flow – at 1 µM was 8.81 ± 1 µL/min/mg in data set [8] (rat liver microsomes, cofactor NADPH) and 180 ± 0.7 µL/min/mg in data set [8] (rat liver microsomes, cofactor UDPGA). Besides, the half-life (as a rule, the time needed for the level to fall by half in the phase considered) at 1 µM in data set [8] (cofactor NADPH) was 2.64 ± 0.301 h; in [8] (cofactor UDPGA), 0.1283 ± 0.0005 h.

With `CC1(C)S[C@@H]2[C@H](NC(=O)[C@H](N)c3ccccc3)C(=O)N2[C@H]1C(=O)O` [amp, ampicillin], the “MIC of antibiotic alone” value with S. aureus ATCC 25923 was 0.3 µg/mL; in [9], “res”; in [9] (listed as ampicillin) it was “resistant”.

For the compound `NC[C@H]1O[C@H](O[C@H]2[C@H](O)[C@@H](O[C@H]3O[C@H](CO)[C@@H](O)[C@H](N)[C@H]3O)[C@H](N)C[C@@H]2N)[C@H](O)[C@@H](O)[C@@H]1O` [km, kanamycin], the “MIC of antibiotic alone” value was 12.5 µg/mL in the data set with S. aureus ATCC 25923, “res” in [9] and “resistant” in [9] (listed as kanamycin).

Regarding `CCn1cc(C(=O)O)c(=O)c2cc(F)c(N3CCNCC3)cc21` [nor, norfloxacin], the “MIC of antibiotic alone” value is 2.5 µg/mL in the data set on S. aureus ATCC 25923 and 10 µg/mL in data set [9].
